Here are results for 1 molecule from US20150305333A1, “USE OF GLUCOSAMINE AMIDES AS PLANT GROWTH AND YIELD ENHANCERS” (PIONEER HI-BRED INTERNATIONAL, INC., priority 2012, published 2015).

Common to all, as to type: in vivo
Test [1] relates to AC Metcalf spring barley (Hordeum vulgare). Kind of test: Spring barley field trial 2011: emergence, vigor, tillering. The conditions noted are these: for Barley Crop Vigor (1-5 scale): vigor scale of Example 3; for Barley Plant Tillers: 24 DAP. As to the method:
A spring barley field trial was conducted to evaluate the effects of NPG on plant emergence and vigor in AC Metcalf spring barley (Hordeum vulgare) planted near Wetaskiwin, Alberta, Canada, in 2011. Seed treatments included an Untreated Control, 10^−7 M NPG seed coating, 10^−7 M NPG seed coating followed by an NPG foliar treatment (10^−7 M NPG+Foliar), 10^−6 M natural LCO, and 10^−6 M commercial LCO plus a commercial rhizobia inoculant (LCO+RI) applied as a seed coating. The natural LCO was provided by Dr. Don Smith (McGill University, Montreal, Canada) and prepared as described in Example 2.
Seed coating was performed by injecting 7 mL of aqueous NPG solution per 100 g barley seed into the coating machine followed by treatment and drying. […] Foliar NPG was applied 47 days after planting. Plants were sprayed using a four-nozzle hollow-cone boom and CO2 propellant at a speed of 10.8 km/h and 40 psi, with a mix size of 1.0 L and spray rate of 110 L/ha water volume. Seeds designated for use as the Untreated Control also received the fungicide maintenance treatment.
Treated seeds were sent to the DuPont Wetaskiwin, Alberta, Canada, Research Station and planted on May 19th in a loam composed of 29% sand, 46% silt and 25% clay and 4.8% organic matter. […] Barley was planted at a rate of 100 kg seeds/ha to a depth of 2.5 cm. Weeds were controlled using 60 grams ai/ha pinoxaden, 30 grams/ha thifensulfuron methyl, and 280 grams ai/ha 4-chloro-2-methylphenox acetic acid, 2-ethylhexyl ester. Adigor surfactant was used at a rate of 700 ml/hectare. All of the products used are considered industry standards and representative of what is used in commercial production.
The trial was conducted using a randomized complete block design with a plot size of 2 m by 6 m with 22.9 cm row spacing, 3.3 cm plant spacing and four replications. Height and yield data was not collected in this trial due to a large hailstorm on Jul. 18, 2011.
Crop vigor was observed 11 and 14 days DAP using the vigor scale described in Example 3 (Table 12).

The test system of test [2] is canola (Brassica napus) Pioneer hybrid 45H29. Kind of test: Canola field trials 2011: early growth, days to maturity, height, yield. The conditions noted are these: at plant maturity, averaged across three locations; NPG 10^−7 M, LCO/rhizobia at manufacturers' recommended rates. As to the method:
Three canola (Brassica napus) field trials were conducted in the spring of 2011 to evaluate the effects of NPG on early growth, days to maturity, height and yield for Pioneer hybrid 45H29 planted at research sites near Carman, Neepawa, and Treherne (Manitoba, Canada) in 2011. Seed treatments included an Untreated Control, 10^−7 M NPG, and a mixture of a commercial LCO and rhizobia. An aqueous solution of NPG was applied at 0.25 L/100 kg seed by soaking the seeds in aqueous solutions of the respective treatments for 15 minutes followed by air drying on a tray. Untreated Control seeds were treated identically with the exception of being soaked in water without added NPG, LCO or rhizobia. The LCO/rhizobia mixture was applied to seeds at the manufacturers' recommended rates. […]
Early growth was scored on a 1-9 scale using a subjective evaluation of the ‘healthiness’ of plants and the soil surface area covered by their leaves when the plants are in the 4-6 leaf stage. […]
Days to maturity was measured from time of planting to physiological maturity, which was recorded in days from planting until the seeds in the pod, one third of the way up the main raceme, changed color to black in 50% of the plants in a given row or plot. […]
Plant height was measured at plant maturity. […]
Yield was measured in bushels per acre of mature seed. […]

The next test concerns corn seeds. Kind of test: Petri dish seed germination assay, corn. As to the method: A series of Petri dish seed assays was conducted to evaluate the effects NPG on the seed germination rates of corn, soybean, and canola seeds subjected to cold stress, salt stress and non-stressed conditions (salt stress only for canola). Assays were performed with ten replications of ten seeds/plate (100 total seeds). NPG was applied to seeds at the specified concentrations prior to being placed in Petri plates. Seeds designated for Salt Stress Experiments 1 & 2 were placed in Petri dishes containing a 100 mM NaCl solution and incubated at 21° C.-22° C. in the dark. Cold stress Petri dishes were incubated at 15° C. in the dark. Untreated Controls were incubated at 21° C.-22° C. in the dark as were seeds utilized in the separately conducted non-stressed germination assays. Data was recorded as percent germination at designated times after plating. Statistical analyses were performed using one-way Anova and Kruskal-Wallis one-way analysis of variance on rank combined with Dunn's all pairwise multiple comparison procedure (α=0.05).

Setting [3] is: 10^−7M seed coating + Foliar, 11 DAP.
The mark [4] stands for this setting: 10^−7M seed coating + Foliar, 14 DAP.

Structures are written as SMILES.

Take `CCCCCCC=CCCCCCCCC(=O)NC1C(OC)OC(CO)C(O)C1O` [NPG, Methyl 2-deoxy-2-N-(hexadece-9,10-cis-eneoyl)-β-D-glucopyranoside]: the “Barley Crop Emergence” value worked out at 25a plants/m row in test [1] (setting [3]); 31.8a plants/m row in test [1] (setting [4]); 22.5a plants/m row in test [1] (10^−7M seed coating, 11 DAP); 27.4a plants/m row in test [1] (10^−7M seed coating, 14 DAP). Further, the “Barley Crop Vigor (1-5 scale)” value in test [1] (setting [3]) was found to be 3a; in test [1] (setting [4]) it was 4a; in test [1] (10^−7M seed coating, 11 DAP), 3a; in test [1] (10^−7M seed coating, 14 DAP), 4a. For the same molecule, the “Barley Plant Tillers” value stood at 95a % in test [1] (10^−7M seed coating + Foliar) and 83a % in test [1] (10^−7M seed coating). The Plant height in test [2] was 114.2 cm. Besides, the “Corn Seed Germination” value in the test with corn seeds (Cold Stress (15° C.), 10^−6M, 48 HAP) was 13ab %; in the test with corn seeds (Cold Stress (15° C.), 10^−6M, 56 HAP), 52a %; in the test with corn seeds (Cold Stress (15° C.), 10^−6M, 65 HAP), 100%; with corn seeds (Cold Stress (15° C.), 10^−7M, 48 HAP) it was 20ab %; in the test with corn seeds (Cold Stress (15° C.), 10^−7M, 56 HAP) it was 52a %; in the test on corn seeds (Cold Stress (15° C.), 10^−7M, 65 HAP), 100%. Moreover, the “Corn Seed Germination” value is 34a % with corn seeds (Non-Stressed, 10^−6M, 28 HAP); 80a % in the test on corn seeds (Non-Stressed, 10^−6M, 34 HAP); 100a % with corn seeds (Non-Stressed, 10^−6M, 44 HAP); 20b % with corn seeds (Salt Stress (100 mM NaCl) Experiment 2, 10^−6M, 32 HAP); 90a % in the test on corn seeds (Salt Stress (100 mM NaCl) Experiment 2, 10^−6M, 42 HAP); 44a % in the test on corn seeds (Salt Stress (100 mM NaCl) Experiment 2, 10^−7M, 32 HAP). The “Corn Seed Germination” value in the test with corn seeds (Salt Stress (100 mM NaCl) Experiment 2, 10^−7M, 42 HAP) amounted to 87a %.
